The values that follow come from US8153615B2, “Synthesis of glycerolipid carbamates and dicarbamates and their use as an antitumor compounds” (priority 2005, dated 2012).

Several values for one entry are separate records, joined by “and”; a condition that tells them apart may be missing. Equal values may be shown once. A value given as a limit tells only on which side of the number the result lay.

Assay [1] deals with MDA-MB-231 cells. Description: Antiproliferative evaluation, CyQuant assay, MDA-MB-231. Type of assay: cell-based, human. To be noted: exponentially growing cells, 48 h incubation, read-out: IC50, growth inhibition, MDA-MB-231, breast. On the procedure:
(§1) FIG. 2 is a graphical depiction of the results of an antiproliferative evaluation of compound I against the following cancer cell lines: DU145, PC3, BT549, HeLa, MDA-MB-231, A549, and MCF-7. Cells growing exponentially in 48-well plates were incubated with different concentrations of compound I for 48 h. The increases in cell numbers were determined by the CyQuant assay and are expressed as a percentage of the increase in control wells with the vehicle (0.1% ethanol). The results are the average+SD from six different wells.
(§2) FIG. 3 is a graphical depiction of the results of an antiproliferative evaluation of compound II against the following cancer cell lines: DU145, PC3, BT549, HeLa, MDA-MB-231, A549, and MCF-7. Cells growing exponentially in 48-well plates were incubated with different concentrations of compound II for 48 h. The increases in cell numbers were determined by the CyQuant assay and are expressed as a percentage of the increase in control wells with the vehicle (0.1% ethanol). […]
(§3) FIG. 4 is a graphical depiction of the results of an antiproliferative evaluation of compound III against the following cancer cell lines: DU145, PC3, BT549, HeLa, MDA-MB-231, A549, and MCF-7. […] The increases in cell numbers were determined by the CyQuant assay and are expressed as a percentage of the increase in control wells with the vehicle (0.1% ethanol). […]
(§4) FIG. 5 is a graphical depiction of the results of an antiproliferative evaluation of compound IV against the following cancer cell lines: DU145, PC3, BT549, HeLa, MDA-MB-231, A549, and MCF-7. […] The increases in cell numbers were determined by the CyQuant assay and are expressed as a percentage of the increase in control wells with the vehicle (0.1% ethanol). […]
(§5) FIG. 6 is a graphical depiction of the results of an antiproliferative evaluation of compound V against the following cancer cell lines: DU145, PC3, BT549, HeLa, MDA-MB-231, A549, and MCF-7. […] The increases in cell numbers were determined by the CyQuant assay and are expressed as a percentage of the increase in control wells with the vehicle (0.1% ethanol). […]

Assay [2] concerns MCF-7 cells. Description: Antiproliferative evaluation, CyQuant assay, MCF-7. Type of assay: cell-based, human. To be noted: exponentially growing cells, 48 h incubation, read-out: IC50, growth inhibition, MCF-7, breast. On the procedure: as §1
(§6) FIG. 3 is a graphical depiction of the results of an antiproliferative evaluation of compound II against the following cancer cell lines: DU145, PC3, BT549, HeLa, MDA-MB-231, A549, and MCF-7. Cells growing exponentially in 48-well plates were incubated with different concentrations of compound II for 48 h. The increases in cell numbers were determined by the CyQuant assay and are expressed as a percentage of the increase in control wells with the vehicle (0.1% ethanol). The results are the average+SD from six different wells.
(§7) FIG. 4 is a graphical depiction of the results of an antiproliferative evaluation of compound III against the following cancer cell lines: DU145, PC3, BT549, HeLa, MDA-MB-231, A549, and MCF-7. Cells growing exponentially in 48-well plates were incubated with different concentrations of compound III for 48 h. The increases in cell numbers were determined by the CyQuant assay and are expressed as a percentage of the increase in control wells with the vehicle (0.1% ethanol). The results are the average+SD from six different wells.
(§8) FIG. 5 is a graphical depiction of the results of an antiproliferative evaluation of compound IV against the following cancer cell lines: DU145, PC3, BT549, HeLa, MDA-MB-231, A549, and MCF-7. Cells growing exponentially in 48-well plates were incubated with different concentrations of compound IV for 48 h. The increases in cell numbers were determined by the CyQuant assay and are expressed as a percentage of the increase in control wells with the vehicle (0.1% ethanol). The results are the average+SD from six different wells.
(§9) FIG. 6 is a graphical depiction of the results of an antiproliferative evaluation of compound V against the following cancer cell lines: DU145, PC3, BT549, HeLa, MDA-MB-231, A549, and MCF-7. Cells growing exponentially in 48-well plates were incubated with different concentrations of compound V for 48 h. The increases in cell numbers were determined by the CyQuant assay and are expressed as a percentage of the increase in control wells with the vehicle (0.1% ethanol). The results are the average+SD from six different wells. […]

The subject of assay [3] is A549 cells. Description: Antiproliferative evaluation, CyQuant assay, A549. Type of assay: cell-based, human. The following applies: exponentially growing cells, 48 h incubation, read-out: IC50, growth inhibition, A549, lung. On the procedure:
as §1, §6, §7, §8, §9

The test system of assay [4] is HeLa cells. Description: Antiproliferative evaluation, CyQuant assay, HeLa. The following applies: exponentially growing cells, 48 h incubation, read-out: IC50, growth inhibition, HeLa, cervix. Type of assay: cell-based, human. On the procedure: as §1, §2, §3, §4, §5
Assay [5] has as its system BT549 cells. Description: Antiproliferative evaluation, CyQuant assay, BT549. To be noted: exponentially growing cells, 48 h incubation, read-out: IC50, growth inhibition, BT549, breast. Type of assay: cell-based, human. On the procedure: as §1, §2, §3, §4, §5
The test system of assay [6] is DU145 cells. As to the kind of experiment: Antiproliferative evaluation, CyQuant assay, DU145. Type of assay: cell-based, human. The following applies: exponentially growing cells, 48 h incubation, read-out: IC50, growth inhibition, DU145, prostate. On the procedure:
as §1, §6, §7, §8
(§10) FIG. 6 is a graphical depiction of the results of an antiproliferative evaluation of compound V against the following cancer cell lines: DU145, PC3, BT549, HeLa, MDA-MB-231, A549, and MCF-7. Cells growing exponentially in 48-well plates were incubated with different concentrations of compound V for 48 h. The increases in cell numbers were determined by the CyQuant assay and are expressed as a percentage of the increase in control wells with the vehicle (0.1% ethanol). The results are the average+SD from six different wells.
(§11) We screened the compounds against a panel of human cancer cell lines derived from a number of tissues. […]

Assay [7] concerns PC3 cells. Description: Antiproliferative evaluation, CyQuant assay, PC3. The following applies: exponentially growing cells, 48 h incubation, read-out: IC50, growth inhibition, PC3, prostate. Type of assay: cell-based, human. On the procedure: as §1, §6, §7, §8, §10, §11
In assay [8] the test system is prostate cancer cells (DU145, PC3) relative to other cancer cell lines. Description: Prostate cancer cell selectivity across the panel of human cancer cell lines. Type of assay: cell-based. The following applies: prostate lines versus other cancer cell lines, 48 h. An excerpt: (§12) We screened the compounds against a panel of human cancer cell lines derived from a number of tissues. These were breast (MCF-7, BT549, SKBr3, MDA-MB-231), lung (A549), cervix (HeLa), and prostate (DU145, PC3) cancer cell lines. […] In some cases, the IC50 values were much lower than values reported for ET-18-OCH3, indicative of a greater degree of potency of these new compounds. The most striking observation is that the greatest inhibition of cell growth was found when the two prostate cell lines, DU145 and PC3, were treated with these compounds. […] Because hormone-insensitive prostate cancer cells are highly sensitive to the active compounds described herein, (compounds I, II, and III), we postulate that it may be possible to selectively kill prostate cancer cells with low concentrations without harming other cells in the body. The prostate selectivity observed with compound I was also observed with compounds II and III (Table 1 and FIGS. 3 and 4) and distinguishes these compounds from other antitumor compounds.

The test system of assay [9] is SK-N-MC cells. The following applies: read-out: IC50, antiproliferative effect, SK-N-MC (neuronal); proliferating cells, 0-20 μM, 48 h, CyQuant assay. On the procedure:
(§13) Specifically, proliferating cells in 48-well plates were incubated with 0-20 μM of the compound for 48 hours. The cell numbers present were determined by the CyQuant™ assay (Invitrogen), and the increase in numbers were expressed relative to the controls receiving only the vehicle (0.1% ethanol).
(§14) Proliferating cells in 48-well plates were incubated with 0-20 μM of the compound for 48 h. The cell numbers present were determined by the CyQuant™ assay (Invitrogen), and the increase in numbers were expressed relative to the controls receiving only the vehicle (0.1% ethanol).

The test system of assay [10] is SK-N-SH cells. The following applies: read-out: IC50, antiproliferative effect, SK-N-SH (neuronal); proliferating cells, 0-20 μM, 48 h, CyQuant assay. On the procedure:
as §13, §14

For assay [11], the system named is HepG2 cells. The following applies: read-out: IC50, antiproliferative effect, HepG2 (liver); proliferating cells, 0-20 μM, 48 h, CyQuant assay. On the procedure: as §13, §14
Assay [12] concerns DU145 cells. Description: Toxicity (loss of viability) to DU145 cells. Type of assay: cell-based, human.
Excerpt: as §12

Consider `CCCCCCCCCCCCCCCCOC[C@H](CCP(=O)([O-])OCC[N+](C)(C)C)OC(=O)NC` [Compound II, 2′-(trimethylammonio)ethyl 4-hexadecyloxy-3(S)—N-methylcarbamoyl-1-butane-phosphonate], for which the IC50 (usually the midpoint of a concentration-inhibition curve) in [1] is 6.1 µM; in assay [2], 10.1 µM; in assay [3] it was greater than 20 µM; in [4], 7.9 µM; in assay [5], 6.8 µM; in assay [6] it was 2.1 µM. Moreover, in [7], the IC50 is 2.5 µM.

Turning to “1-O-(7-N, N-dimethylamino-3-pentadecanoyl-1-napthyl)-2-O-methyl-sn-glycero-3-phosphocholine”, the half-maximal inhibitory concentration (IC50) in assay [2] was greater than 20 µM; in assay [3] it was greater than 20 µM; in assay [6], 3.5 µM; in assay [9] it was greater than 20 µM; in [10] it was less than 20 µM; in assay [11], greater than 20 µM. In assay [7], the IC50 was 1.9 µM. In addition, the “prostate cancer cell selectivity” value in assay [8] was “highly selective for prostate cancer cells”.

In the case of `CCCCCCCCCCCCCCCCOC[C@@H](COP(=O)([O-])OCC[N+](C)(C)C)NC(=O)OC` [Compound III, 2′-(trimethylammonio)ethyl 2(S)—(N-methoxycarbonylamido)-3-hexadecyloxypropanephosphate], the IC50 in assay [1] was 10.5 µM; in assay [2] it was 9.1 µM; in [3] it was greater than 20 µM; in assay [4] it was 19.3 µM; in [5], 13.4 µM; in assay [6], 2.4 µM. Moreover, the half-maximal inhibitory concentration (IC50) in assay [7] was 1.9 µM. Further, the “prostate cancer cell selectivity” value in [8] was “greatest prostate cancer cell selectivity”.

Take `CCCCCCCCCCCCCCCCOC[C@@H](CCP(=O)([O-])OCC[N+](C)(C)C)OC(=O)NC` [Compound I, 2′-(trimethylammonio)ethyl 4-hexadecyloxy-3(R)—N-methylcarbamoyl-1-butanephosphonate]: the “concentration toxic to the cells (loss of viability)” value in assay [12] was 2.5 µM. Also, the IC50 in assay [1] is 3.7 µM; in assay [2] it was 4 µM; in assay [3] it was 10.7 µM; in assay [4], 3.3 µM; in [5], 4.4 µM; in [6], 1 µM and 1.2 µM. Also, the half-inhibitory concentration (IC50) in [7] is 1.2 µM.
